Reference: patent US10202579B2, “Methods for producing mammalian pluripotent stem cell-derived endodermal cells” (Takara Bio Europe AB, priority 2012, dated 2019)

Tested on: hPSC lines P11032, SA181 and P11012
Assay: DE differentiation of 3 hPSC lines with 5-aza-2-deoxycytidine or 5-azacytidine, qRT-PCR marker expression (Example 5)
Type: cell-based, human
Details: 1 μM on day 2-3
Method: Following the basic protocols A (hPSC lines P11032, and SA181) or B (hPSC line P11012), cells derived from 3 different hPSC lines were treated with either 10 nM 5-aza-2-deoxycytidine or 1 μM 5-azacytidine on day 2-3 during the hPS differentiation into definitive endodem.
For analysis of mRNA expression, hESC- and hiPSC-derived DE-cells were harvested on day 7 of the protocol and gene expression was analysed using qRT-PCR, normalised to the house-keeping gene CREBBP, and the results presented as relative quantification normalised to a calibrator.

Nc1ncn([C@@H]2O[C@H](CO)[C@@H](O)[C@H]2O)c(=O)n1 [5-azacytidine]
mRNA expression of the DE marker Cxcr4 (day 7): No significant changes | mRNA expression of the DE marker Sox17 (day 7): No significant changes | Nanog mRNA (day 7, vs without treatment): significantly decreased | Oct4 mRNA (day 7, vs without treatment): significantly decreased | Homogeneity of derived DE population (lines give heterogeneous DE if untreated): allowed derivation of a homogeneous DE population
